Data published in publication PMC4106721, “Structure of a Membrane-Embedded Prenyltransferase Homologous to UBIAD1” (PLoS Biology, 2014).

Legend:
Test in all cases: isothermal titration calorimetry
Format in all cases: binding
AfUbiA [1] = molecular target: T1, AfUbiA (Archaeoglobus fulgidus, UniProt O28625, D198A)
T1 construct: gene AF_1648; full gene in modified pET vector, N-terminal His-tag removed with TEV protease, expressed in E. coli BL21(DE3), DM-solubilised for ITC or in lipidic cubic phase for crystals; likely monomer
T1 sequence (O28625 entry or part of it D198A): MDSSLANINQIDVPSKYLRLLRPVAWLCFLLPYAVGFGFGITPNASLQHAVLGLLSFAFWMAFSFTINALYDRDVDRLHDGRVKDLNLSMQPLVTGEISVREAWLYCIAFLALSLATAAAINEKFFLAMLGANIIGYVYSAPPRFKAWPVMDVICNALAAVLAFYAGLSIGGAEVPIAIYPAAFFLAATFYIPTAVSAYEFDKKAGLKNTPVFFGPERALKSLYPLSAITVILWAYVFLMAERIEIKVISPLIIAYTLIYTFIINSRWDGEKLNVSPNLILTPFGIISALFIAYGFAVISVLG

AfUbiA [2] = molecular target: T2, AfUbiA (Archaeoglobus fulgidus, UniProt O28625, K146A); details: 2 mM MgCl2, pH 7.5, 25 °C, 4 mM DM
T2 construct: gene AF_1648; full gene in modified pET vector, N-terminal His-tag removed with TEV protease, expressed in E. coli BL21(DE3), DM-solubilised for ITC or in lipidic cubic phase for crystals; likely monomer
T2 sequence (O28625 entry or part of it K146A): as the sequence (O28625 entry or part of it D198A) above, with K146A, A198D counted along it

AfUbiA [3] = molecular target: T3, AfUbiA (Archaeoglobus fulgidus, UniProt O28625, D72A); details: 2 mM MgCl2, pH 7.5, 25 °C, 4 mM DM
T3 construct: gene AF_1648; full gene in modified pET vector, N-terminal His-tag removed with TEV protease, expressed in E. coli BL21(DE3), DM-solubilised for ITC or in lipidic cubic phase for crystals; likely monomer
T3 sequence (O28625 entry or part of it D72A): as the sequence (O28625 entry or part of it D198A) above, with D72A, A198D counted along it

AfUbiA [4] = molecular target: T4, AfUbiA (Archaeoglobus fulgidus, UniProt O28625, R22A); details: 2 mM MgCl2, pH 7.5, 25 °C, 4 mM DM
T4 construct: gene AF_1648; full gene in modified pET vector, N-terminal His-tag removed with TEV protease, expressed in E. coli BL21(DE3), DM-solubilised for ITC or in lipidic cubic phase for crystals; likely monomer
T4 sequence (O28625 entry or part of it R22A): as the sequence (O28625 entry or part of it D198A) above, with R22A, A198D counted along it

AfUbiA [5] = molecular target: T5, AfUbiA (Archaeoglobus fulgidus, UniProt O28625, D202A)
T5 construct: gene AF_1648; full gene in modified pET vector, N-terminal His-tag removed with TEV protease, expressed in E. coli BL21(DE3), DM-solubilised for ITC or in lipidic cubic phase for crystals; likely monomer
T5 sequence (O28625 entry or part of it D202A): as the sequence (O28625 entry or part of it D198A) above, with A198D, D202A counted along it

AfUbiA [6] = molecular target: T6, AfUbiA (Archaeoglobus fulgidus, UniProt O28625, N68A); details: 2 mM MgCl2, pH 7.5, 25 °C, 4 mM DM
T6 construct: gene AF_1648; full gene in modified pET vector, N-terminal His-tag removed with TEV protease, expressed in E. coli BL21(DE3), DM-solubilised for ITC or in lipidic cubic phase for crystals; likely monomer
T6 sequence (O28625 entry or part of it N68A): as the sequence (O28625 entry or part of it D198A) above, with N68A, A198D counted along it

AfUbiA [7] = molecular target: T7, AfUbiA (Archaeoglobus fulgidus, UniProt O28625)
T7 construct: gene AF_1648; full gene in modified pET vector, N-terminal His-tag removed with TEV protease, expressed in E. coli BL21(DE3), DM-solubilised for ITC or in lipidic cubic phase for crystals; likely monomer
T7 sequence (O28625 1-303): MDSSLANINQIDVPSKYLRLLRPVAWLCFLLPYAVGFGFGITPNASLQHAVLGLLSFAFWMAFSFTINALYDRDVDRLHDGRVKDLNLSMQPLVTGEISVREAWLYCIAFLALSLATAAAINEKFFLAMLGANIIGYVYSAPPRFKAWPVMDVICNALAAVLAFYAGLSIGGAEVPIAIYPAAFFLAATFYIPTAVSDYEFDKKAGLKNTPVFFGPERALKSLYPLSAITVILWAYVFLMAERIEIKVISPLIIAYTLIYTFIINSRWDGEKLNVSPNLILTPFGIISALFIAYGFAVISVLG

## CC(C)=CCC/C(C)=C/COP(=O)(O)OP(=O)(O)O [geranyl diphosphate]
AfUbiA [1]
  Kd: 144 ± 13 µM
AfUbiA [2]
  no binding detected (N.D.): Four of the mutations completely abolished GPP binding
AfUbiA [3]
  no binding detected (N.D.): Four of the mutations completely abolished GPP binding
AfUbiA [4]
  no binding detected (N.D.): Four of the mutations completely abolished GPP binding
AfUbiA [5]
  Kd: 67 ± 9 µM
AfUbiA [6]
  no binding detected (N.D.): Four of the mutations completely abolished GPP binding
AfUbiA [7]
  Kd: 3.2 ± 0.1 µM
